# Assay results taken from publication PMC9090415, “Discovery of small molecule inhibitors of Plasmodium falciparum apicoplast DNA polymerase” (Journal of Enzyme Inhibition and Medicinal Chemistry, 2022).
# Like-named read-outs stand apart in the source and are kept apart here.
# Molecular target: P. falciparum apicoplast DNA polymerase (Pf-apPOL) (Plasmodium falciparum, UniProt Q8ILY1)
# Assay: Fluorescence-based high-throughput DNA polymerase assay (molecular beacon), primary screen and dose-response;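 as to % inhibition ApPOL 90': test concentration in µM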;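 as to % inhibition Apol 40': compound concentration given in µM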;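 as to % inhibition apPOL 180': test concentration in µM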
# Type: biochemical
# Conditions: for DNA Pol: 90 min, 10 µM
# Procedure, shortened: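 Single-point screening used 10 µM compound with 20 nM polymerase, 20 nM hairpin substrate and 6 µM dNTPs for 90 min at 25 °C. Confirmatory titrations (2.5–80 µM) followed fluorescence at three times, and IC50 was derived from a fit including a cooperativity term n.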
# [1] = 'DNA Pol' of the 186 hits list (primary screen value)
# [2] = first dose-response set, concentration 80
# P. falciparum apicoplast DNA polymerase (Pf-apPOL), sequence (Q8ILY1 entry or part of it): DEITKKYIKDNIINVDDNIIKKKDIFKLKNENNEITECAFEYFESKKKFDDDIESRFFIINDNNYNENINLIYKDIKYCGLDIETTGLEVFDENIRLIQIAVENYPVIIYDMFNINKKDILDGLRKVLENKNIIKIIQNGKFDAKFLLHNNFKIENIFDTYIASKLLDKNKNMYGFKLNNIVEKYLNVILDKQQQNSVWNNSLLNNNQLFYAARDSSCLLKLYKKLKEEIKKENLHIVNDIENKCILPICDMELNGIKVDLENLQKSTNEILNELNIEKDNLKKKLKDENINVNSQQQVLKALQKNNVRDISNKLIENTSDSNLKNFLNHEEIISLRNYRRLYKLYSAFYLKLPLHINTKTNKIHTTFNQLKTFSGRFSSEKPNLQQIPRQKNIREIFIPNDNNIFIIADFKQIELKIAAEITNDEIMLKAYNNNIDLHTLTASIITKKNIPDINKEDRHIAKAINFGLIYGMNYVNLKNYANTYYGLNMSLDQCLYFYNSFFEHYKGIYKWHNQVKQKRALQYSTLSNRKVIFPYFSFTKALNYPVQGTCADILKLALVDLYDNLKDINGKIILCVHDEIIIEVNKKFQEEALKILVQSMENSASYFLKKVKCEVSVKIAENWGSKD
smiles,measurement,setting,value
"COc1cccc(Oc2c(C(F)(F)F)oc3cc(OC(=O)N(C)C)ccc3c2=O)c1 [Molecule 52, COc1cccc(c1)Oc1c(=O)c2ccc(cc2oc1C(F)(F)F)OC(=O)N(C)C]",DNA Pol,[1],61
same,DNA Pol,DNA Pol (primary screen value),61
same,% inhibition Apo pol 10',"DRC-1, concentration 2.5",6.553%
same,% inhibition Apo pol 10',"DRC-1, concentration 5",12.9509%
same,% inhibition Apo pol 10',"DRC-1, concentration 10",26.9326%
same,% inhibition Apo pol 10',"DRC-1, concentration 20",35.5271%
same,% inhibition Apo pol 10',"DRC-1, concentration 40",51.7019%
same,% inhibition Apo pol 10',"DRC-1, concentration 80",57.2765%
same,% inhibition Apol 90',"DRC-1, concentration 2.5",11.9844%
same,% inhibition Apol 90',"DRC-1, concentration 5",19.0717%
same,% inhibition Apol 90',"DRC-1, concentration 10",34.8904%
same,% inhibition Apol 90',"DRC-1, concentration 20",41.7615%
same,% inhibition Apol 90',"DRC-1, concentration 40",58.6612%
same,% inhibition Apol 90',"DRC-1, concentration 80",63.3235%
same,% inhibition apPOL 180',"DRC-1, concentration 2.5",22.4742%
same,% inhibition apPOL 180',"DRC-1, concentration 5",28.9407%
same,% inhibition apPOL 180',"DRC-1, concentration 10",43.333%
same,% inhibition apPOL 180',"DRC-1, concentration 20",44.974%
same,% inhibition apPOL 180',"DRC-1, concentration 40",65.9617%
same,% inhibition apPOL 180',"DRC-1, concentration 80",64.6101%
same,% inhibition Apo pol 5',"DRC-2, concentration 2.5",15%
same,% inhibition Apo pol 5',"DRC-2, concentration 5",18%
same,% inhibition Apo pol 5',"DRC-2, concentration 10",27%
same,% inhibition Apo pol 5',"DRC-2, concentration 20",32%
same,% inhibition Apo pol 5',"DRC-2, concentration 40",40%
same,% inhibition Apo pol 5',"DRC-2, concentration 80",42%
same,% inhibition Apol 40',"DRC-2, concentration 2.5",14%
same,% inhibition Apol 40',"DRC-2, concentration 5",14%
same,% inhibition Apol 40',"DRC-2, concentration 10",33%
same,% inhibition Apol 40',"DRC-2, concentration 20",41%
same,% inhibition Apol 40',"DRC-2, concentration 40",50%
same,% inhibition Apol 40',"DRC-2, concentration 80",56%
same,% inhibition ApPOL 90',"DRC-2, concentration 2.5",14%
same,% inhibition ApPOL 90',"DRC-2, concentration 5",8%
same,% inhibition ApPOL 90',"DRC-2, concentration 10",33%
same,% inhibition ApPOL 90',"DRC-2, concentration 20",41%
same,% inhibition ApPOL 90',"DRC-2, concentration 40",51%
same,% inhibition ApPOL 90',"DRC-2, concentration 80",58%
same,% inhibition apPOL 180',"DRC-2, concentration 2.5",6.57%
same,% inhibition apPOL 180',"DRC-2, concentration 5",-58%
same,% inhibition apPOL 180',"DRC-2, concentration 10",24%
same,% inhibition apPOL 180',"DRC-2, concentration 20",33%
same,% inhibition apPOL 180',"DRC-2, concentration 40",45%
same,% inhibition apPOL 180',"DRC-2, concentration 80",54%
O=C(O)c1ccc(-c2nc3cc(-c4ccc5nc(-c6ccc(C(=O)O)cc6)[nH]c5c4)ccc3[nH]2)cc1 [Molecule 1],IC50,"read-out: IC50 Pf-apPOL, Table 2",5.9 ± 0.9 µM
same,IC50,"supplemental file 2, sheet IC50 nontoxic compounds, Pf-apPOL",5.92 µM
"COc1ccc(-c2cc3nc4c(c(=O)n3[nH]2)CCN(C(=O)CCc2ccccc2)C4)cc1 [Molecule 17, COc1ccc(cc1)c1[nH]n2c(c1)nc1c(c2=O)CCN(C1)C(=O)CCc1ccccc1]",DNA Pol,[1],52
same,DNA Pol,DNA Pol (primary screen value),52
same,% inhibition Apo pol 10',"DRC-1, concentration 2.5",3%
same,% inhibition Apo pol 10',"DRC-1, concentration 5",30%
same,% inhibition Apo pol 10',"DRC-1, concentration 10",64%
same,% inhibition Apo pol 10',"DRC-1, concentration 20",81%
same,% inhibition Apo pol 10',"DRC-1, concentration 40",82%
same,% inhibition Apo pol 10',"DRC-1, concentration 80",78%
same,% inhibition Apol 90',"DRC-1, concentration 2.5",-3.33%
same,% inhibition Apol 90',"DRC-1, concentration 5",18%
same,% inhibition Apol 90',"DRC-1, concentration 10",49%
same,% inhibition Apol 90',"DRC-1, concentration 20",69%
same,% inhibition Apol 90',"DRC-1, concentration 40",72%
same,% inhibition Apol 90',"DRC-1, concentration 80",78%
same,% inhibition apPOL 180',"DRC-1, concentration 2.5",-7%
same,% inhibition apPOL 180',"DRC-1, concentration 5",7.5%
same,% inhibition apPOL 180',"DRC-1, concentration 10",34%
same,% inhibition apPOL 180',"DRC-1, concentration 20",55%
same,% inhibition apPOL 180',"DRC-1, concentration 40",58%
same,% inhibition apPOL 180',"DRC-1, concentration 80",70%
same,% inhibition Apo pol 5',"DRC-2, concentration 2.5",-5.33%
same,% inhibition Apo pol 5',"DRC-2, concentration 5",12%
same,% inhibition Apo pol 5',"DRC-2, concentration 10",31%
same,% inhibition Apo pol 5',"DRC-2, concentration 20",43%
same,% inhibition Apo pol 5',"DRC-2, concentration 40",44%
same,% inhibition Apo pol 5',"DRC-2, concentration 80",38%
same,% inhibition Apol 40',"DRC-2, concentration 2.5",-5.29%
same,% inhibition Apol 40',"DRC-2, concentration 5",14%
same,% inhibition Apol 40',"DRC-2, concentration 10",35%
same,% inhibition Apol 40',"DRC-2, concentration 20",54%
same,% inhibition Apol 40',"DRC-2, concentration 40",57%
same,% inhibition Apol 40',"DRC-2, concentration 80",58%
same,% inhibition ApPOL 90',"DRC-2, concentration 2.5",-4.53%
same,% inhibition ApPOL 90',"DRC-2, concentration 5",13%
same,% inhibition ApPOL 90',"DRC-2, concentration 10",33%
same,% inhibition ApPOL 90',"DRC-2, concentration 20",53%
same,% inhibition ApPOL 90',"DRC-2, concentration 40",57%
same,% inhibition ApPOL 90',"DRC-2, concentration 80",61%
same,% inhibition apPOL 180',"DRC-2, concentration 2.5",-5%
same,% inhibition apPOL 180',"DRC-2, concentration 5",6%
same,% inhibition apPOL 180',"DRC-2, concentration 10",24%
same,% inhibition apPOL 180',"DRC-2, concentration 20",44%
same,% inhibition apPOL 180',"DRC-2, concentration 40",50%
same,% inhibition apPOL 180',"DRC-2, concentration 80",58%
same,% inhibition Apo pol 10',[2],78%
same,% inhibition Apol 90',[2],78%
same,% inhibition apPOL 180',"first dose-response set, concentration 40",58%
"O=C(Cn1ccc2c(=O)[nH]ccc21)Nc1cc(F)ccc1F [Molecule 42, O=C(Cn1ccc2c1cc[nH]c2=O)Nc1cc(F)ccc1F]",DNA Pol,[1],40
same,DNA Pol,DNA Pol (primary screen value),40
same,% inhibition Apo pol 10',"DRC-1, concentration 2.5",-0.6304%
same,% inhibition Apo pol 10',"DRC-1, concentration 5",13.4677%
same,% inhibition Apo pol 10',"DRC-1, concentration 10",49.4515%
same,% inhibition Apo pol 10',"DRC-1, concentration 20",62.1247%
same,% inhibition Apo pol 10',"DRC-1, concentration 40",77.421%
same,% inhibition Apo pol 10',"DRC-1, concentration 80",76.1541%
same,% inhibition Apol 90',"DRC-1, concentration 2.5",-3.25%
same,% inhibition Apol 90',"DRC-1, concentration 5",4.148%
same,% inhibition Apol 90',"DRC-1, concentration 10",35.5527%
same,% inhibition Apol 90',"DRC-1, concentration 20",52.2284%
same,% inhibition Apol 90',"DRC-1, concentration 40",71.4461%
same,% inhibition Apol 90',"DRC-1, concentration 80",77.7263%
same,% inhibition apPOL 180',"DRC-1, concentration 2.5",-7.978%
same,% inhibition apPOL 180',"DRC-1, concentration 5",-3.837%
same,% inhibition apPOL 180',"DRC-1, concentration 10",18.2291%
same,% inhibition apPOL 180',"DRC-1, concentration 20",34.5428%
same,% inhibition apPOL 180',"DRC-1, concentration 40",57.1907%
same,% inhibition apPOL 180',"DRC-1, concentration 80",71.3539%
same,% inhibition Apo pol 5',"DRC-2, concentration 2.5",3.65%
same,% inhibition Apo pol 5',"DRC-2, concentration 5",11%
same,% inhibition Apo pol 5',"DRC-2, concentration 10",31%
same,% inhibition Apo pol 5',"DRC-2, concentration 20",40%
same,% inhibition Apo pol 5',"DRC-2, concentration 40",37%
same,% inhibition Apo pol 5',"DRC-2, concentration 80",27%
same,% inhibition Apol 40',"DRC-2, concentration 2.5",2.11%
same,% inhibition Apol 40',"DRC-2, concentration 5",13%
same,% inhibition Apol 40',"DRC-2, concentration 10",36%
same,% inhibition Apol 40',"DRC-2, concentration 20",54%
same,% inhibition Apol 40',"DRC-2, concentration 40",58%
same,% inhibition Apol 40',"DRC-2, concentration 80",54%
same,% inhibition ApPOL 90',"DRC-2, concentration 2.5",0.827%
same,% inhibition ApPOL 90',"DRC-2, concentration 5",10%
same,% inhibition ApPOL 90',"DRC-2, concentration 10",34%
same,% inhibition ApPOL 90',"DRC-2, concentration 20",54%
same,% inhibition ApPOL 90',"DRC-2, concentration 40",60%
same,% inhibition ApPOL 90',"DRC-2, concentration 80",59%
same,% inhibition apPOL 180',"DRC-2, concentration 2.5",-5%
same,% inhibition apPOL 180',"DRC-2, concentration 5",4.53%
same,% inhibition apPOL 180',"DRC-2, concentration 10",24%
same,% inhibition apPOL 180',"DRC-2, concentration 20",46%
same,% inhibition apPOL 180',"DRC-2, concentration 40",59%
same,% inhibition apPOL 180',"DRC-2, concentration 80",62%
